In patent US10590075B2, “Cyanopyrrolidine derivatives as inhibitors for DUBs” (Mission Therapeutics Limited, priority 2015, dated 2020):

target: Cezanne 1 (Homo sapiens (Human), UniProt Q6GQQ9); test: Cezanne 1 biochemical IC50 assay; details: FLAG-Cezanne 1 purified from HEK293T cells; fluorescence polarisation, TAMRA labelled peptide linked to ubiquitin; 30 min preincubation, 2 hr read; read-out: IC50 range
Experimental: The Cezanne 1 construct was PCR amplified and cloned into a pFLAG-CMV-6c vector (Sigma-Aldrich) with an N-terminal FLAG tag. HEK293T cells were transfected with FLAG-Cezanne 1 using TransIT-LT1 transfection reagent (Mirus) according to the manufacturer's instructions. Cells were harvested 48 hours after transfection. Cells were washed once with PBS and scraped in lysis buffer (50 mM Tris, pH 7.5, 150 mM NaCl, 3 mM EDTA, 0.5% NP40, 10% glycerol, 5 mM beta-mercaptoethanol, protease inhibitors (complete mini, Roche) and phosphatase inhibitors (PhosSTOP mini, Roche). Lysates were incubated for 30 min on ice and centrifuged at 4000 rpm for 10 min at 4° C. Soluble supernatant was added to FLAG affinity resin (EZview Red ANTI-FLAG M2 affinity gel, Sigma-Aldrich) equilibrated in low salt buffer (20 mM Tris, pH 7.5, 150 mM NaCl, 0.5 mM EDTA, 5 mM beta-mercaptoethanol) and incubated at 4° C. for 3 hours rotating. The resin was spun at 2000 rpm for 2 min and the supernatant was removed. The resin was washed two times with low salt buffer and one time with high salt buffer (20 mM Tris, pH 7.5, 500 mM NaCl, 0.5 mM EDTA, 5 mM beta-mercaptoethanol, protease inhibitors (complete mini, Roche) and phosphatase inhibitors (PhosSTOP mini, Roche). To elute the bound Cezanne 1, elution buffer (10 mM Tris, pH 7.5, 150 mM NaCl, 0.5 mM EDTA, 10% glycerol, 0.5% NP40, 5 mM beta-mercaptoethanol, 0.15 mg/ml 3× FLAG peptide (Sigma-Aldrich)) was added to the resin and incubated at 4° C. for 2.5 hours while rotating. The resin was centrifuged at 4000 rpm for 30 seconds, and the supernatant containing purified FLAG-Cezanne 1 was removed and stored at −80° C.
Dilution plates were prepared at 21 times the final concentration (2100 μM for a final concentration of 100 μM) in 50% DMSO in a 96-well polypropylene V-bottom plate (Greiner #651201). A typical 8-point dilution series to be 100, 30, 10, 3, 1, 0.3, 0.1, […]. Reactions were performed in duplicate in black 384 well plates (small volume, Greiner 784076) in a final reaction volume of 21 μl. Either 1 μl of 50% DMSO or diluted compound was added to the plate. Cezanne 1 was diluted in reaction buffer (40 mM Tris, pH 7.5, 0.005% Tween 20, 0.5 mg/ml BSA, 5 mM—beta-mercaptoethanol) to the equivalent of 0.005 μl/well and 10 μl of diluted Cezanne 1 was added to the compound. Enzyme and compound were incubated for 30 min at room temp. Reactions were initiated by the addition of 50 nM of TAMRA labelled peptide linked to ubiquitin via an iso-peptide bond as fluorescence polarisation substrate. Reactions were read immediately after addition of substrate and following a 2 hr incubation at room temperature. Readings were performed on a Pherastar Plus (BMG Labtech). λ Excitation 540 nm; λ Emission 590 nm.

Chain of Cezanne 1 (Q6GQQ9 whole entry): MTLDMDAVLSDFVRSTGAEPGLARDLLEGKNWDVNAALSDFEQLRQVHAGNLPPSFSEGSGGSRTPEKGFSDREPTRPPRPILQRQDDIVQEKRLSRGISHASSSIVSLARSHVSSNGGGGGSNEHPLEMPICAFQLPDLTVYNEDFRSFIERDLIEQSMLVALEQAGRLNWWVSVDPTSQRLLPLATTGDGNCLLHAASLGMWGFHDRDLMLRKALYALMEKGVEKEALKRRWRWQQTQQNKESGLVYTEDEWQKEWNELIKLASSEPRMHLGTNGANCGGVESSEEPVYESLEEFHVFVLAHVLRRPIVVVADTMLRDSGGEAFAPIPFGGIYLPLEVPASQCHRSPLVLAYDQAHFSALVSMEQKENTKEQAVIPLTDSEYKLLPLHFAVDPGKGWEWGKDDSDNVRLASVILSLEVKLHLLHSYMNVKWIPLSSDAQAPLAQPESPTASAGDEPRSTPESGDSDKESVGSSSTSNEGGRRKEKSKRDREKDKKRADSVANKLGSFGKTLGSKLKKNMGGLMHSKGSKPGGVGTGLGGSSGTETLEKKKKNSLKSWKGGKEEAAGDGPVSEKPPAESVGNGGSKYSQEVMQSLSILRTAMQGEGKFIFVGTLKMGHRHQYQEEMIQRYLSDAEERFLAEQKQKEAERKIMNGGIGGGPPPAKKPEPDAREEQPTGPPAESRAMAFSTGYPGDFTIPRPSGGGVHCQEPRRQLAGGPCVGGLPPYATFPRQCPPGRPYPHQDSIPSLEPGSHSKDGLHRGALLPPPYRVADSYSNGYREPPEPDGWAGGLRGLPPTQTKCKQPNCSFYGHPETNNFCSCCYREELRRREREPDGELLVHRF

IC50 [nM] | SMILES
1000 to 10000 | Cc1nc(-c2cccc(NC(=O)C3(F)CCN(C#N)C3)c2)cs1 (stereo not shown) [Example 6, 1-cyano-3-fluoro-N-(3-(2-methylthiazol-4-yl)phenyl)pyrrolidine-3-carboxamide]
1000 to 10000 | N#CN1CCC(F)(C(=O)Nc2ccc3ncccc3c2)C1 (stereo not shown) [Example 5, 1-cyano-3-fluoro-N-(quinolin-6-yl)pyrrolidine-3-carboxamide]
100 to 1000 | N#CN1CCC(F)(C(=O)Nc2cn3cc(-c4ccn[nH]4)ccc3n2)C1 (stereo not shown) [Example 28, N-(6-(1H-pyrazol-5-yl)imidazo[1,2-a]pyridin-2-yl)-1-cyano-3-fluoropyrrolidine-3-carboxamide]
100 to 1000 | N#CN1CCC(F)(C(=O)Nc2cc(-c3cccc(-n4ccnc4)c3)no2)C1 (stereo not shown) [Example 26, N-(3-(3-(1H-imidazol-1-yl)phenyl)isoxazol-5-yl)-1-cyano-3-fluoropyrrolidine-3-carboxamide]
1000 to 10000 | N#CN1CCC(F)(C(=O)Nc2cnc3ccccc3c2)C1 (stereo not shown) [Example 4, 1-cyano-3-fluoro-N-(quinolin-3-yl)pyrrolidine-3-carboxamide]
1000 to 10000 | N#CN1CC[C@@](F)(C(=O)Nc2cnn(-c3ccccc3)c2)C1 [Example 12, (S)-1-cyano-3-fluoro-N-(1-phenyl-1H-pyrazol-4-yl)pyrrolidine-3-carboxamide]
1000 to 10000 | N#CN1CCC(F)(C(=O)Nc2nc3ccc(-c4ccccc4)cc3s2)C1 (stereo not shown) [Example 17, 1-cyano-3-fluoro-N-(6-phenylbenzo[d]thiazol-2-yl)pyrrolidine-3-carboxamide]
100 to 1000 | N#CN1CCC(F)(C(=O)Nc2ccc3ncsc3c2)C1 (stereo not shown) [Example 3, N-(benzo[d]thiazol-6-yl)-1-cyano-3-fluoropyrrolidine-3-carboxamide]
100 to 1000 | CNC(=O)c1cccc(-c2cnc(NC(=O)[C@@]3(F)CCN(C#N)C3)s2)c1 [Example 24, (R)-1-cyano-3-fluoro-N-(5-(3-(methylcarbamoyl)phenyl)thiazol-2-yl)pyrrolidine-3-carboxamide]
100 to 1000 | N#CN1CCC(F)(C(=O)Nc2cc(-c3ccccc3)no2)C1 (stereo not shown) [Example 20, 1-cyano-3-fluoro-N-(3-phenylisoxazol-5-yl)pyrrolidine-3-carboxamide]
1000 to 10000 | N#CN1CCC(F)(C(=O)Nc2nc(-c3ccccc3)cs2)C1 (stereo not shown) [Example 2, 1-cyano-3-fluoro-N-(4-phenylthiazol-2-yl)pyrrolidine-3-carboxamide]
100 to 1000 | N#CN1CC[C@](F)(C(=O)Nc2cc(-c3ccccc3)no2)C1 [Example 21, (R)-1-cyano-3-fluoro-N-(3-phenylisoxazol-5-yl)pyrrolidine-3-carboxamide]
100 to 1000 | N#CN1CCC(F)(C(=O)Nc2ncc(-c3cccc(-n4ccnc4)c3)s2)C1 (stereo not shown) [Example 25, N-(5-(3-(1H-imidazol-1-yl)phenyl)thiazol-2-yl)-1-cyano-3-fluoropyrrolidine-3-carboxamide]
100 to 1000 | CNC(=O)c1cccc(-c2cnc(NC(=O)C3(F)CCN(C#N)C3)s2)c1 (stereo not shown) [Example 23, 1-cyano-3-fluoro-N-(5-(3-(methylcarbamoyl)phenyl)thiazol-2-yl)pyrrolidine-3-carboxamide]
100 to 1000 | N#CN1CC[C@](F)(C(=O)Nc2cc(-c3cccc(-n4ccnc4)c3)no2)C1 [Example 27, (R)—N-(3-(3-(1H-imidazol-1-yl)phenyl)isoxazol-5-yl)-1-cyano-3-fluoropyrrolidine-3-carboxamide]
1000 to 10000 | N#Cc1ccc(-n2cnc(NC(=O)[C@@]3(F)CCN(C#N)C3)c2)cc1 [Example 14, (R)-1-cyano-N-(1-(4-cyanophenyl)-1H-imidazol-4-yl)-3-fluoropyrrolidine-3-carboxamide]
1000 to 10000 | N#CN1CCC(F)(C(=O)Nc2cccc(Oc3ccccc3)c2)C1 (stereo not shown) [Example 7, 1-cyano-3-fluoro-N-(3-phenoxyphenyl)pyrrolidine-3-carboxamide]
100 to 1000 | N#CN1CCC(F)(C(=O)Nc2cc(-c3ccccc3)on2)C1 (stereo not shown) [Example 10, 1-cyano-3-fluoro-N-(5-phenylisoxazol-3-yl)pyrrolidine-3-carboxamide]
100 to 1000 | N#CN1CCC(F)(C(=O)Nc2ncc(-c3cccc4[nH]ncc34)s2)C1 (stereo not shown) [Example 18, N-(5-(1H-indazol-4-yl)thiazol-2-yl)-1-cyano-3-fluoropyrrolidine-3-carboxamide]
100 to 1000 | N#CN1CCC(F)(C(=O)Nc2ncc(-c3ccccc3)s2)C1 (stereo not shown) [Example 8, 1-cyano-3-fluoro-N-(5-phenylthiazol-2-yl) pyrrolidine-3-carboxamide]
1000 to 10000 | N#CN1CCC(F)(C(=O)Nc2nc3ccc(-c4cn[nH]c4)cc3s2)C1 (stereo not shown) [Example 16, N-(6-(1H-pyrazol-4-yl)benzo[d]thiazol-2-yl)-1-cyano-3-fluoropyrrolidine-3-carboxamide]
1000 to 10000 | N#CN1CCC(F)(C(=O)Nc2ccc(Cl)c(C(F)(F)F)c2)C1 (stereo not shown) [Example 1, N-(4-chloro-3-(trifluoromethyl)phenyl)-1-cyano-3-fluoropyrrolidine-3-carboxamide]
100 to 1000 | N#CN1CC[C@](F)(C(=O)Nc2ncc(-c3ccccc3)s2)C1 [Example 9, (R)-1-cyano-3-fluoro-N-(5-phenylthiazol-2-yl) pyrrolidine-3-carboxamide]
1000 to 10000 | N#CN1CCC(F)(C(=O)Nc2cn(-c3ccccc3)cn2)C1 (stereo not shown) [Example 11, 1-cyano-3-fluoro-N-(1-phenyl-1H-imidazol-4-yl)pyrrolidine-3-carboxamide]
100 to 1000 | N#CN1CCC(F)(C(=O)Nc2ncc(-c3cccc(C(N)=O)c3)s2)C1 (stereo not shown) [Example 22, N-(5-(3-carbamoylphenyl)thiazol-2-yl)-1-cyano-3-fluoropyrrolidine-3-carboxamide]
< 100 | N#CN1CC[C@](F)(C(=O)Nc2cnn(-c3ccccc3)c2)C1 [Example 13, (R)-1-cyano-3-fluoro-N-(1-phenyl-1H-pyrazol-4-yl)pyrrolidine-3-carboxamide]
1000 to 10000 | CNC(=O)c1cccc(-c2ccc3nc(NC(=O)C4(F)CCN(C#N)C4)sc3c2)c1 (stereo not shown) [Example 29, 1-cyano-3-fluoro-N-(6-(3-(methylcarbamoyl)phenyl)benzo[d]thiazol-2-yl)pyrrolidine-3-carboxamide]
1000 to 10000 | N#CN1CC[C@](F)(C(=O)Nc2cnn(Cc3ccccc3)c2)C1 [Example 15, (R)—N-(1-benzyl-1H-pyrazol-4-yl)-1-cyano-3-fluoropyrrolidine-3-carboxamide]
